Measurements from patent US8119148B2, “Suspension comprising oxcarbazepine” (Novartis Pharmaceuticals Corporation, priority 1999, dated 2012).
≈ marks a conversion by molar mass, not a printed value.

Experiment: Solubility in water
Format: physicochemical
Settings: pH 5.8, water, at 25° C. and pH of 5.8 to 6.0
Method: A wide range of container sizes may be employed. Container size may be conveniently categorised as Low-Volume, e.g., 100 ml or less and High-Volume, e.g., above 100 ml and typically 250 ml.

solubility: 3200 to 4200 µg/mL (≈ 12.7 to 16.6 mM)
SMILES: NC(=O)N1c2ccccc2CC(=O)c2ccccc21 [oxcarbazepine, 10,11-Dihydro-10-oxo-5H-di-benz[b,f]azepine-5-carboxamide]
